# Assay results reported in patent US8211633B2, “Viral variants with altered susceptibility to nucleoside analogs and uses thereof” (priority 2002, dated 2012).
# Key:
# [1] = test system: HBV encoding rtI169T+rtV173L+rtL180M+rtM204V; assay: Antiviral testing with recombinant HBV/baculovirus in HepG2 cells, replicative intermediates by quantitative real-time PCR, quadruple mutant; format: cell-based, hepatitis B virus; details: quadruple mutant rtI169T+rtV173L+rtL180M+rtM204V vs wild type; especially at concentrations up to 0.5 μM ETV; FIG. 11
# Protocol: The sensitivity/resistance profile of HBV mutants to entecavir was examined in vitro using recombinant HBV/baculovirus. The procedure for analysing the resistance profile is outlined in the following Examples 7-14.
# Sf21 insect cells were maintained in supplemented Grace's insect medium further supplemented with 10% v/v heat-inactivated fetal bovine serum (Gibco BRL, Gaithersburg, Md.) in humidified incubator at 28 C with CO2. HepG2 cells were maintained in minimal essential medium supplemented with 10% v/v heat-inactivated fetal bovine serum (MEM-FBS). HepG2 cells were grown in humidified 37° C. incubators at 5% v/v CO2.
# The recombinant HBV/baculovirus system used for antiviral testing has been previously described (Delaney et al., Antimicrob Agents Chemother 45(6): 1705-[…], 2001). […] The nucleotide sequence of the plasmid and the point mutations generated by site directed mutagenesis were confirmed by sequencing using the ABI Prism Big Dye Terminator Cycle Sequencing Ready Reaction Kit according to the manufacturer's specifications (Perkin Elmer, Cetus Norwalk, Conn.). […]
# HepG2 cells were seeded at approximately 20-40% confluency and then were grown for 16-24 hours before infection. On the day of infection, triplicate plates of cells were trypsinized, and viable cell number was determined with a hemocytometer using Trypan blue exclusion. […]
# HBV [2] = assay: Serum HBV DNA level in treated patients (Digene Hybrid Capture II capture hybridization assay); format: in vivo, human; details: for HBV DNA: patient A, on LMV
# Source text: (§1) Patient A is a person with chronic hepatitis B presented on Day 0 (9 Jul. 1999) with raised serum HBV DNA levels (>2000 pg/ml) and was commenced on LMV treatment immediately (FIG. 2). The patient A was HBsAg positive and anti-HBe positive. Following the initiation of LMV treatment the HBV DNA levels fell to 8 pg/ml over 54 days of therapy. […] By Day 241 the serum ALT peaked at 741 IU/l. The HBV DNA was sequenced and LMV resistant virus was detected. […] The patient was started on open label ETV plus LMV.
# Patient B is a liver transplant patient. […] The patient was treated with LMV prior to ETV. The patient is currently on ETV treatment. […] The HBV DNA from this sample was further characterized by sequencing.
# Hepatitis B surface antigen (HBsAg), hepatitis B e antigen (HBeAg), anti-HBe and hepatitis B core antigen (HBcAg) specific IgG and IgM were measured using commercially available immunoassays (Abbott Laboratories, North Chicago, Ill., USA). Hepatitis B viral DNA levels were measured using a capture hybridization assay according to the manufacturer's directions (Digene Hybrid Capture II, Digene Diagnostics Inc., Beltsville, Md.). The manufacturers stated cut-off for detecting HBV viremia in clinical specimens was 0.7×10^6 copies/ml or 2.5 pg/ml, [Hendricks D A, et al., Am J Clin Pathol 104: 537-46, 1995].
# WHV = details: chronically-infected woodchucks; cited from earlier work
# HBV [3] = details: four week dose-escalation trial; highest dose tested (1 mg/daily); cited from earlier work
# [4] = Serum ALT level in treated patient A; format: in vivo, human; details: on LMV
# Source text: as §1
# [5] = day 382 post LMV treatment, day blinded ETV vs LMV phase started
smiles,measurement,setting,value
C=C1[C@H](CO)[C@@H](O)C[C@@H]1n1cnc2c(=O)[nH]c(N)nc21 [ETV],sensitivity to ETV (HBV DNA replicative intermediates by quantitative PCR),[1],reduced sensitivity to ETV
same,HBV DNA levels,"HBV [2]; patient B (liver transplant, LMV before ETV), during ETV treatment",less than 5 pg/ml
same,HBV DNA levels,"HBV [2]; patient B, at 532 days ETV treatment (3857 days post transplant), rise",993 pg/mL
same,efficacy against WHV,WHV,demonstrated efficacy
same,mean reduction in viremia,HBV [3],2.5 log10
"Nc1ccn([C@@H]2CS[C@H](CO)O2)c(=O)n1 [LMV, (−)-β-2′-deoxy-3′-thiacytidine]",HBV DNA,HBV [2]; day 54 post LMV treatment,8 pg/mL
same,HBV DNA,HBV [2]; day 173 post LMV treatment,837 pg/mL
same,HBV DNA,HBV [2]; day 199 post LMV treatment,1826 pg/mL
same,HBV DNA,HBV [2]; day 241 post LMV treatment,930 pg/mL
same,HBV DNA,HBV [2]; day 283 post LMV treatment,1631 pg/mL
same,HBV DNA,HBV [2]; day 312 post LMV treatment,1539 pg/mL
same,HBV DNA,HBV [2]; day 348 post LMV treatment,1605 pg/mL
same,HBV DNA,HBV [2]; [5],1303 pg/mL
same,ALT,[4]; day 54 post LMV treatment,510 IU/L
same,ALT,[4]; day 87 post LMV treatment,211 IU/L
same,ALT,[4]; day 115 post LMV treatment,106 IU/L
same,ALT,[4]; day 173 post LMV treatment,186 IU/L
same,ALT,[4]; day 199 post LMV treatment,233 IU/L
same,ALT,[4]; day 241 post LMV treatment,741 IU/L
same,ALT,[4]; day 283 post LMV treatment,334 IU/L
same,ALT,[4]; day 312 post LMV treatment,238 IU/L
same,ALT,[4]; day 348 post LMV treatment,349 IU/L
same,ALT,[4]; [5],317 IU/L
